In US20220054588A1, “USE OF SAP FOR THE TREATMENT OF EUROTIOMYCETES FUNGI INFECTIONS” (HUMANITAS MIRASOLE S.P.A., priority 2018, published 2022):

System: A. fumigatus
Assay: Therapy of invasive aspergillosis in cyclophosphamide-immunosuppressed mice (survival, lung CFU)
Type: in vivo
Conditions: for MST / survival: 4 mg/Kg i.p. at 2 and 24 h; for survival: cyclophosphamide-treated mice
Protocol: FIG. 12 depicts the therapeutic efficacy of SAP in treatment of invasive aspergillosis. a) b) c) survival of transiently immunosuppressed wt mice after injection with the indicated doses of AF conidia. The curve of untreated mice (n=3) with cyclophosphamide is also shown (a). Human SAP (4 mg/Kg) was injected at 2 h and 24 h after infection. a) AF 5.10^7, n=17; AF 5.10^7+SAP, n=15; b) AF 1.10^7, n=7; AF 1.10^7+SAP, n=8; c) AF 5.10^6, n=8; AF 5.10^6+SAP, n=10.***, P<0.005 SAP-treated vs. saline (Mantel-Cox test). One-way ANOVA, P<0.0001. d) lung CFU in mice treated with cyclophosphamide and infected with 1.10^7 AF conidia.*, P<0.05 (Mann-Whitney test). e) quantitative analysis of AF viability performed using a resazurin-based assay. Plasma (30%) from wt and Apcs^−/− mice were incubated (1 min) with 1.5×10^5 AF conidia pre-opsonized or not with SAP. Results are mean±SD of red fluorescence (excitation/emission 535/580-610 nm) intensity of the resazurin once reduced to resorufin within viable cells. Effect of Posaconazole (POC; 1 μM) exposure is also shown. Results are mean±SEM relative to the condition without serum (grey symbols) of two experiments performed with n=10 mice/group. […] AF viability assay performed in sera depleted from complement components. Figure summarizes one experiment out of 5 also conducted with serum 10%. Mean±SD.*, P<0.05; **, P<0.01 (unpaired t-test). g) and h) FACS analysis of MAC deposition on AF conidia (1×10^7) in presence of sera depleted from complement components (e) and the effect of SAP (f). Mean±SEM of 2 experiments performed out of 4. e, f,*, P<0.05;**, P<0.01;***, P<0.005;****, P<0.001; (Mann-Whitney test).
FIG. 13 depicts the therapeutic efficacy of SAP in treatment of invasive aspergillosis alone or in combination with posaconazole. Survival of transiently cyclophosphamide-immunosuppressed mice after injection with 5×10^7 conidia. Human SAP (4 mg/Kg) and Posaconazole (POS; 1.6 mg/Kg) were injected at 16 h and 40 h after infection. AF 5.10^7+ saline, n=9; AF 5.10^7+SAP, n=8; AF 5.10^7+POS, n=9; AF 5.10^7+SAP+POS, n=8. P<0.01, saline vs. hSAP; P<0.005, saline vs. POS; P<0.0005, saline vs. hSAP+POS; P<0.05, POS vs. hSAP+POS; (Mantel-Cox test).
The growth and culture conditions of A. fumigatus and A. Flavus conidia were as described (Garlanda et al., 2002). For intratracheal (i.t.) injection, mice were anesthetized by i.p. injection of ketamine (100 mg/Kg; i.p.) and xylazine (10 mg/Kg i.p.). After surgical exposure, a volume of 50 μl PBS^2+, pH 7.4, containing 1×10^8 or 5×10^7 resting conidia (>95% viable, as determined by serial dilution and plating of the inoculum on Sabouraud dextrose agar) were delivered into trachea under direct vision using a catheter connected to the outlet of a micro-syringe (Terumo, Belgium). Survival to infection was daily monitored for 10d later. Dying mice were euthanized after evaluation of the following clinical parameters: body temperature dropping, intermittent respiration, solitude presence, sphere posture, fur erection, non-responsive alertness, and inability to ascent when induced.
In therapy experiments, immunosuppression was induced by i.p. injection of 150 mg/Kg cyclophosphamide (150μl per mouse of 20 mg/ml solution) 2d before infection. Native human SAP (Merck-Millipore) was dialysed in PBS (pH 7.4) in order to eliminate sodium azide and i.p. injected at the dose of 4 mg/Kg at 2 and 24 h after infection or in combination with Posaconazole (POS; 1.6 mg/Kg) at 16 h and 40 h after infection.
Lung homogenates and analysis. Lungs were removed 16 h after infection and homogenized in 1 ml PBS, pH 7.4, containing 0.01% (vol/vol) Tween-20® (Merck-Millipore) and protease inhibitors. Samples were serially diluted 1:10 in PBS and plated on Sabouraud dextrose agar for blinded CFU counting. […]

Substance “human native SAP: Native SAP from human serum purchased by Merck-Millipore; Serum Amyloid P component, SEQ ID NO: 1” has an MST (1×10^7 conidia) of over 10, a survival (1×10^7 conidia) of 62.5% and an MST (5×10^6 conidia) of over 10. For the same substance, the survival (5×10^6 conidia) was 80%, the MST (5×10^7 conidia) was 4 and the survival (5×10^7 conidia) was 20%. The “lung fungal burden, median” value (16 h, 1×10^7 conidia, SAP-treated mice) was 2.0×10^6 CFU and the “reduction in fungal burden in lung” value (16 h, 1×10^7 conidia, SAP-treated vs. untreated) was 12 fold.
